Read-outs that look alike come from different tables or passages of the source.
Key:
[1] = system: sexual erythrocytic stages of PfDd2 cultures; assay: Anti-gametocyte activity, stage I and II gametocytes; format: cell-based, Plasmodium falciparum
Experimental: The effect of Compound I was tested on the development of sexual erythrocytic stages of PfDd2 cultures. Stage I and II gametocytes, were incubated for forty-eight hours with drug concentration considering the IC50 values of compounds at asexual stage assay.

[2] = In vitro cytotoxicity, HepG2; format: cell-based; conditions: human, HepG2 cells; read-out: CC50 (50% cell toxicity)
[3] = system: P. berghei sporozoites in HepG2 cells; assay: Liver stage infection in HepG2 cells, qPCR of 18SrRNA; format: cell-based, Plasmodium berghei; conditions: for IC50: read-out: in-vitro liver stage IC50
Source text: Liver stage infection in HepG2 cells: Salivary glands of Anopheles stephensi mosquitoes infected with green fluorescent protein (GFP)-expressing P. berghei ANKA (Insectary at National Institute of Immunology, New Delhi, India) were dissected out. Sporozoites were perched in complete medium (Dulbecco's Modified Eagle Medium (DMEM)) with 10% fetal bovine serum (FBS), 3% penicillin-streptomycin (P/S)), and allowed to infect HepG2 cells. The cells were already treated with Calxinin at various concentrations (0.1 μM, 1 μM and 10 μM). The plate was centrifuged at 3000 rpm for 5 minutes to ensure the sporozoites settled down in the plate, and then placed in the incubation at 37° C. for 3 hours. Afterwards, media was replaced with pre-warmed medium (DMEM, 10% FBS, 3% P/S, and 0.1% Fungizone) supplemented with dimethyl sulfoxide (DMSO), and Calxinin at indicated concentrations. After two days, the cells were treated with Trizol and […] at −80° C. RNA isolation followed by reverse transcription polymerase chain reaction (RTPCR) was done to estimate the parasite load in the infected cells.
Compound I was tested in vitro against Plasmodium liver stage parasites. HepG2 cells, a human hepatocyte cell line, were infected with Plasmodium berghie sporozoites (mosquito infective forms of malaria). One set of cells was treated with 0.4, 2.0 and 10.0 micromolar concentration of inhibitor Compound I, and the other set was left untreated. Sporozoite infection time was considered as zero time. Twenty-four hours after infection the culture media was refreshed and the inhibitors were replenished. After forty-eight hours, total cells were harvested and total RNA was extracted by the Trizol™ method. RNA was converted into cDNA and realtime PCR was performed using the parasite 18SrRNA primers. This determined the liver stage parasite burden, which was then converted into percent inhibition by comparing with the untreated set.
Liver schizont stages are the first stage of human infection after injection of sporozoites by mosquitoes. The activity of compounds against this stage offers the important part of the antimalarial therapy, chemoprotection. To evaluate the efficacy of Compound I against liver stage parasites, HepG2 cells were infected with P. berghei sporozoites, in triplicates, and dosed with 0.1, 1, 10 μM of Compound I dissolved in 1% DMSO. The parasite load was quantified in control and Compound I-treated cells by quantitative PCR (qPCR) using parasite specific 18SrRNA primers. […] Inhibitory effect decreases up to 61% while treating cells with 10 μM due to precipitation of compound at higher concentration (FIG. 3). […] The liver stage activity of Compound I is much higher over the current treatments, atovaquone (ATQ) in culture.

[4] = Hemostatic parameters, plasmatic and whole blood assays (thrombelastography)
Experimental: (§1) Studies were performed to assess the effect of Calxinin on hemostatic parameters using plasmatic and whole blood assays.

human platelets = assay: Agonist-induced platelet aggregation; format: cell-based; conditions: up to 20 μg/ml
Experimental: as §1

[5] = system: P. falciparum, strain IPC 3445; assay: Growth inhibition of ART resistant field strain; format: cell-based; conditions: Plasmodium falciparum, 72 h, read-out: IC50, ART resistant strain IPC 3445
Experimental: Plasmodium falciparum (P. falciparum), strain IPC 3445 was isolated in 2010 from the blood of a human patient with malaria in Pailin province, western Cambodia. Parasites were grown in the lab and tested with different concentrations of the Calxinin and DHA (100 μM-90 nM) for 72 hr incubations.

primary and human cells = assay: Cell cytotoxicity assays in primary and human cells (summary statements); format: cell-based
Experimental: PBMC were isolated from healthy donors using the Ficoll-Paque™ technique (GE Healthcare Bioscience AB, Uppsala, Sweden) from donor leukopack samples obtained from LUMC blood bank services. […] Robust cells at a concentration of 80,000 cells/ml were plated into 96-well plates and incubated for 24 hours. Cell viability and proliferation was determined by use of both MTT and Cell Titer Glo@ assays for both cell types. MTT assay was conducted by addition of 10 μL MTT solution (5 mg/mL) into each well, incubated for 4 hour at 37° C. followed by addition of 50 μL DMSO to dissolve the formazan precipitate according to the manufacturer's protocol. Aliquots were drawn from each well and color intensity was measured spectrophotometrically in SpectraMax® M5 Multi-Mode Microplate Reader.
In addition, the cell viability of Huh 7 and HEK293 cells was evaluated post drug exposure using the Alamar Blue assay [Riss, Terry L., et al. “Cell viability assays.” Assay Guidance Manual [Intenet]. […] Cells (1×10/well) were exposed to varying concentrations of test compounds, for 24 hours in 96-well plate format along with 10/100 μL Alamar Blue solution (10×=4.8 mM in phosphate buffer) per well.

[6] = system: P. berghei ookinete (Pb-GFPcon); assay: In vitro ookinete inhibition assay; format: cell-based, Plasmodium berghei
Experimental: [3] In vitro Ookinete inhibition assay of Calxinin. To determine whether Compound I (Calxinin) is blocking the growth of the transmission stage of malaria GFP-expressing P. berghei ANKA constitutively (Pb-GFPcon), which expresses the GFP during all the developmental stages, was used during in vitro experiments. Compound I (Calxinin) was tested in nanomolar range for its ability to inhibit ookinete development. Early gametocyte stage was maintained in vitro by incubating in ookinete media containing Xanthrunic acid and various other nutrients (complete DMEM) and pH 8.0. For the inhibition assay, culture plates containing Calxinin at different concentrations were incubated for about 24 h at 19° C. on a shaker and in the dark. After 24 h, ookinete development was checked by generating blood smears from the cultures. Smears were fixed, stained with Giemsa and counted in a NIKON 80i microscope.
Example 13—In-vitro Ookinete inhibition assay Encouraged with notable potency against symptomatic asexual blood stage, liver stage, and gametocidal activity, transmission blocking efficacy of Compound I (Calxinin) was evaluated against ookinete. […] As the concentration of Compound I increases, the percentage of healthy parasite is reduced and the % of deformed parasite increases (FIG. 7B).

In the case of `NC(Cc1ccccc1)C(O)CN1CCN(Cc2ccc(C(F)(F)F)cc2)CC1` (centres unmarked) [Compound I], the “maturation of stage III to V gametocytes (PfDd2)” value ([1]; 48 hours at asexual stage IC50, vs DMSO control) is reported as 41.0, the gametocyte morphology ([1]; 48 hours, vs DMSO control) is reported as “morphologically distorted gametocytes” and the “decreased proportion of stage III to V gametocytes” value ([1]; 48 hrs at 88 nM) is reported as “up to 59%”. It also gave a CC50 [2] of 1350 µM, an inhibition at 0.1 µM ([3]; Plasmodium berghei, HepG2, 0.1 μM, read-out: inhibition of liver stage parasite load) of about 60% and an inhibition at 1 µM ([3]; Plasmodium berghei, HepG2, 1 μM, read-out: inhibition of liver stage parasite load) of about 88%. The inhibition at 10 µM ([3]; Plasmodium berghei, HepG2, 10 μM, precipitation of compound, read-out: inhibition of liver stage parasite load) was at most 61%, the IC50 ([3]; Plasmodium berghei, HepG2) was 0.079 µM and the IC50 ([3]; listed as Calxinin) was 0.065 µM. The “anticoagulant effect (hemostatic parameters)” value [4] was “no adverse impact”, the “clot formation by thrombelastography” value ([4]; up to 20 μg/ml) was “did not impact clot formation” and the “agonist-induced aggregation of human platelets” value (human platelets) was “did not alter agonist-induced aggregation of human platelets”. The IC50 [5] was 0.0926 µM, the “toxicity to HEK293, Huh 7.1, HepG2 and PBMCs” value (primary and human cells) was “did not show any toxicity” and the “concentration up to which no toxicity was seen” value (primary and human cells; primary and human cells) was over 30 µM. For the same compound, the ookinete morphology ([6]; 450 nanomolar) was “deformed and retarded Ookinete” and the IC50 ([6]; Plasmodium berghei, 24 h, 19° C.) was about 0.15 µM.
